Assay results published in the supplement of paper PMC10307832.

Legend:
Assay in all cases: relative viability (nuclei count vs DMSO), 5 days (fraction); higher = more cells survive
[1] = test system: EPLC-272H
Procedure, shortened: (§1)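 Nuclei were stained with Hoechst during a one-step fixation (final 0.05% Triton X-100, 1% formaldehyde, 1 ug/ml Hoechst) carried out 5 days after dosing, then counted on 4× images. The cells, lung cancer lines in 1536-well plates, had been dosed by pin tool the day after seeding with one drug alone or a fixed anchor-drug dose plus five library-drug doses (not always all listed) in √10 steps. Relative viability is the nuclei count in treated wells divided by that in vehicle wells, and each value is the median of duplicate plates.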

[2] = test system: NCI-H2405
Procedure, shortened: as §1

[3] = test system: NCI-H2009
Procedure, shortened: as §1

[4] = test system: HCC-44
Procedure, shortened: as §1

[5] = test system: NCI-H3122
Procedure, shortened: as §1

[6] = test system: NCI-H2228
Procedure, shortened: as §1

[7] = test system: NCI-H2085
Procedure, shortened: as §1

[8] = test system: NCI-H2347
Procedure, shortened: as §1

[9] = test system: LCLC-103H
Procedure, shortened: as §1

[10] = test system: PC-14
Procedure, shortened: as §1

[11] = test system: HCC-827
Procedure, shortened: as §1

[12] = test system: COR-L23
Procedure, shortened: as §1

[13] = test system: SW 1573
Procedure, shortened: as §1

[14] = test system: NCI-H1355
Procedure, shortened: as §1

[15] = test system: NCI-H1734
Procedure, shortened: as §1

[16] = test system: NCI-H2023
Procedure, shortened: as §1

[17] = test system: HCC-15
Procedure, shortened: as §1

[18] = test system: ChaGo-K-1
Procedure, shortened: as §1

[19] = test system: HCC-366
Procedure, shortened: as §1

[20] = test system: ABC-1
Procedure, shortened: as §1

Nc1cccc2c1CN(C1CCC(=O)NC1=O)C2=O (centres undefined) [Lenalidomide] + CC(C)C[C@H](NC(=O)[C@H](Cc1ccccc1)NC(=O)c1cnccn1)B(O)O [Bortezomib] (partner 0.002 µM)
relative viability ([1]; first compound 0.253 µM): 0.876 | relative viability ([1]; first compound 2.53 µM): 1.03 | relative viability ([1]; first compound 8 µM): 0.999 | relative viability ([2]; first compound 0.253 µM): 0.912 | relative viability ([2]; first compound 0.8 µM): 0.418 | relative viability ([2]; first compound 2.53 µM): 0.876 | relative viability ([2]; first compound 8 µM): 0.828 | relative viability ([3]; first compound 0.253 µM): 0.929 | relative viability ([3]; first compound 0.8 µM): 1.02 | relative viability ([3]; first compound 2.53 µM): 1.22 | relative viability ([3]; first compound 8 µM): 1.01 | relative viability ([4]; first compound 0.253 µM): 0.904 | relative viability ([4]; first compound 0.8 µM): 0.701 | relative viability ([4]; first compound 2.53 µM): 0.912 | relative viability ([4]; first compound 8 µM): 0.832 | relative viability ([5]; first compound 0.253 µM): 1.04 | relative viability ([5]; first compound 0.8 µM): 1.05 | relative viability ([5]; first compound 2.53 µM): 0.98 | relative viability ([5]; first compound 8 µM): 1.13 | relative viability ([6]; first compound 0.253 µM): 1 | relative viability ([6]; first compound 0.8 µM): 0.986 | relative viability ([6]; first compound 2.53 µM): 1.12 | relative viability ([6]; first compound 8 µM): 0.942 | relative viability ([7]; first compound 0.253 µM): 1.05 | relative viability ([7]; first compound 0.8 µM): 0.818 | relative viability ([7]; first compound 2.53 µM): 1.11 | relative viability ([7]; first compound 8 µM): 0.881 | relative viability ([8]; first compound 0.253 µM): 1.1 | relative viability ([8]; first compound 0.8 µM): 0.904 | relative viability ([8]; first compound 2.53 µM): 0.979 | relative viability ([8]; first compound 8 µM): 0.435 | relative viability ([9]; first compound 0.253 µM): 1.01 | relative viability ([9]; first compound 0.8 µM): 0.966 | relative viability ([9]; first compound 2.53 µM): 1.01 | relative viability ([9]; first compound 8 µM): 0.869 | relative viability ([10]; first compound 0.253 µM): 0.779 | relative viability ([10]; first compound 0.8 µM): 0.802 | relative viability ([10]; first compound 2.53 µM): 0.905 | relative viability ([10]; first compound 8 µM): 0.854 | relative viability ([11]; first compound 0.253 µM): 1.09 | relative viability ([11]; first compound 0.8 µM): 0.798 | relative viability ([11]; first compound 2.53 µM): 1.09 | relative viability ([11]; first compound 8 µM): 1.04 | relative viability ([12]; first compound 0.253 µM): 0.994 | relative viability ([12]; first compound 0.8 µM): 1.11 | relative viability ([12]; first compound 2.53 µM): 1.07 | relative viability ([12]; first compound 8 µM): 1.17 | relative viability ([13]; first compound 0.253 µM): 1.14 | relative viability ([13]; first compound 0.8 µM): 1.05 | relative viability ([13]; first compound 2.53 µM): 1.23 | relative viability ([13]; first compound 8 µM): 1.03 | relative viability ([14]; first compound 0.253 µM): 1.23 | relative viability ([14]; first compound 0.8 µM): 0.426 | relative viability ([14]; first compound 2.53 µM): 1.29 | relative viability ([14]; first compound 8 µM): 1.03 | relative viability ([15]; first compound 0.253 µM): 0.896 | relative viability ([15]; first compound 0.8 µM): 0.907 | relative viability ([15]; first compound 2.53 µM): 1.02 | relative viability ([15]; first compound 8 µM): 0.807 | relative viability ([16]; first compound 0.253 µM): 0.954 | relative viability ([16]; first compound 0.8 µM): 1.08 | relative viability ([16]; first compound 2.53 µM): 1.08 | relative viability ([16]; first compound 8 µM): 0.744 | relative viability ([17]; first compound 0.253 µM): 1.02 | relative viability ([17]; first compound 2.53 µM): 1.34 | relative viability ([17]; first compound 8 µM): 0.959 | relative viability ([18]; first compound 0.253 µM): 1.07 | relative viability ([18]; first compound 2.53 µM): 1 | relative viability ([18]; first compound 8 µM): 1.29 | relative viability ([19]; first compound 0.253 µM): 0.985 | relative viability ([19]; first compound 0.8 µM): 1.03 | relative viability ([19]; first compound 2.53 µM): 1.08 | relative viability ([19]; first compound 8 µM): 1.05 | relative viability ([20]; first compound 0.253 µM): 0.302 | relative viability ([20]; first compound 0.8 µM): 0.297 | relative viability ([20]; first compound 2.53 µM): 0.278 | relative viability ([20]; first compound 8 µM): 0.285

CN1CCN(CCOc2cc(OC3CCOCC3)c3c(Nc4c(Cl)ccc5c4OCO5)ncnc3c2)CC1 [Saracatinib] + CC(C)C[C@H](NC(=O)[C@H](Cc1ccccc1)NC(=O)c1cnccn1)B(O)O [Bortezomib] (partner 0.002 µM)
relative viability ([1]; first compound 0.02 µM): 0.812 | relative viability ([1]; first compound 0.2 µM): 0.786 | relative viability ([1]; first compound 0.6325 µM): 1.2 | relative viability ([1]; first compound 2 µM): 0.932 | relative viability ([2]; first compound 0.02 µM): 1.03 | relative viability ([2]; first compound 0.2 µM): 0.749 | relative viability ([2]; first compound 0.6325 µM): 0.736 | relative viability ([2]; first compound 2 µM): 0.716 | relative viability ([3]; first compound 0.02 µM): 1.01 | relative viability ([3]; first compound 0.2 µM): 0.912 | relative viability ([3]; first compound 0.6325 µM): 1.03 | relative viability ([3]; first compound 2 µM): 0.747 | relative viability ([4]; first compound 0.02 µM): 0.917 | relative viability ([4]; first compound 0.2 µM): 0.78 | relative viability ([4]; first compound 0.6325 µM): 0.93 | relative viability ([4]; first compound 2 µM): 1.02 | relative viability ([5]; first compound 0.02 µM): 1.05 | relative viability ([5]; first compound 0.6325 µM): 0.964 | relative viability ([5]; first compound 2 µM): 0.815 | relative viability ([6]; first compound 0.02 µM): 1.05 | relative viability ([6]; first compound 0.2 µM): 0.684 | relative viability ([6]; first compound 0.6325 µM): 1.2 | relative viability ([6]; first compound 2 µM): 0.652 | relative viability ([7]; first compound 0.02 µM): 1.07 | relative viability ([7]; first compound 0.2 µM): 0.91 | relative viability ([7]; first compound 0.6325 µM): 1.13 | relative viability ([7]; first compound 2 µM): 1.11 | relative viability ([8]; first compound 0.02 µM): 1.01 | relative viability ([8]; first compound 0.2 µM): 0.921 | relative viability ([8]; first compound 0.6325 µM): 1.2 | relative viability ([8]; first compound 2 µM): 0.893 | relative viability ([9]; first compound 0.02 µM): 1.21 | relative viability ([9]; first compound 0.2 µM): 0.963 | relative viability ([9]; first compound 0.6325 µM): 1.09 | relative viability ([9]; first compound 2 µM): 0.941 | relative viability ([10]; first compound 0.02 µM): 0.941 | relative viability ([10]; first compound 0.2 µM): 0.685 | relative viability ([10]; first compound 0.6325 µM): 0.261 | relative viability ([10]; first compound 2 µM): 0.169 | relative viability ([11]; first compound 0.02 µM): 0.965 | relative viability ([11]; first compound 0.2 µM): 0.963 | relative viability ([11]; first compound 0.6325 µM): 0.479 | relative viability ([11]; first compound 2 µM): 0.306 | relative viability ([12]; first compound 0.02 µM): 0.98 | relative viability ([12]; first compound 0.2 µM): 0.723 | relative viability ([12]; first compound 0.6325 µM): 1.09 | relative viability ([12]; first compound 2 µM): 1.05 | relative viability ([13]; first compound 0.02 µM): 0.997 | relative viability ([13]; first compound 0.2 µM): 0.906 | relative viability ([13]; first compound 0.6325 µM): 0.955 | relative viability ([13]; first compound 2 µM): 0.933 | relative viability ([14]; first compound 0.02 µM): 1.18 | relative viability ([14]; first compound 0.2 µM): 1.15 | relative viability ([14]; first compound 0.6325 µM): 1.44 | relative viability ([14]; first compound 2 µM): 1.17 | relative viability ([15]; first compound 0.02 µM): 1.08 | relative viability ([15]; first compound 0.6325 µM): 0.891 | relative viability ([15]; first compound 2 µM): 0.842 | relative viability ([16]; first compound 0.02 µM): 1.1 | relative viability ([16]; first compound 0.2 µM): 0.902 | relative viability ([16]; first compound 0.6325 µM): 1.05 | relative viability ([16]; first compound 2 µM): 0.906 | relative viability ([17]; first compound 0.02 µM): 0.969 | relative viability ([17]; first compound 0.2 µM): 0.986 | relative viability ([17]; first compound 0.6325 µM): 1.04 | relative viability ([17]; first compound 2 µM): 0.918 | relative viability ([18]; first compound 0.02 µM): 1.1 | relative viability ([18]; first compound 0.2 µM): 0.866 | relative viability ([18]; first compound 0.6325 µM): 1.05 | relative viability ([18]; first compound 2 µM): 0.79 | relative viability ([19]; first compound 0.02 µM): 1.04 | relative viability ([19]; first compound 0.6325 µM): 0.935 | relative viability ([19]; first compound 2 µM): 0.769 | relative viability ([20]; first compound 0.02 µM): 0.275 | relative viability ([20]; first compound 0.2 µM): 0.282 | relative viability ([20]; first compound 0.6325 µM): 0.312 | relative viability ([20]; first compound 2 µM): 0.317
